Assay results from patent US20230286983A1 (4E Therapeutics, Inc., priority 2020, published 2023).

Assays:
MNK1 = MNK1 (Homo sapiens, UniProt Q9BUB5); assay: MNK1 substrate phosphorylation assay; type: biochemical; details: recombinant human kinase
MNK2 = MNK2 (Homo sapiens, UniProt Q9HBH9); assay: MNK2 substrate phosphorylation assay; type: biochemical; details: recombinant human kinase
[1] = test system: eIF4E phosphorylation at Serine 209 in the human embryonic kidney (HEK) 293 cell line; assay: eIF4E phosphorylation in HEK 293 cells (fluorescent plate reader); type: cell-based; details: eIF4E phosphorylation at Serine 209, 2 hours exposure
Experimental: The ability of MNK inhibitors described herein to inhibit eIF4E phosphorylation at Serine 209 in the human embryonic kidney (HEK) 293 cell line was tested by exposing the cells to compound for 2 hours and then measuring eIF4E phosphorylation with a phosphorylation-specific antibody in a fluorescent plate reader. These experiments were done with HEK-293 cells plated on 96 well plates. Following treatment, cells were fixed with ice cold methanol for 10 min and then washed in 1× phosphate buffered saline (PBS) and the permeabilized with 0.02% Triton X-100 in 10% normal goat serum made up in PBS. Primary antibody was applied overnight at a concentration dilution of 1:2000 (p-eIF4E antibody from Cell Signaling ab76256). Following washing, cells were then exposed to secondary antibody conjugated to alexa-fluor 488 and then visualized on a Syngergy HTX plate reader. Fluorescence for p-eIF4E was measured and normalized to total DAPI fluorescence to determine the percentage of eIF4E phosphorylation in each well. Data were plotted in Graphpad Prism V8 to determine concentration-response effects and calculate IC50 values.

MDCK-MDR1 = MDCK-MDR1 permeability (blood brain barrier permeability); type: in vitro ADME, Canine; details: 5 μM; for Papp A-B: Apical to basolateral transport; for Papp A-B / Papp B-A: average of two experiments; for Papp B-A: Basolateral to apical transport
[2] = Liver microsome stability, mouse; type: in vitro ADME; details: mouse liver microsomes, Table 11b; for half-life: mouse, liver microsomes, read-out: T1/2
P-gp (human MDR1, ABCB1) = assay: MDCK-MDR1 permeability (blood brain barrier permeability); type: in vitro ADME, Canine; details: dog

Sequence of MNK1 (Q9BUB5 whole entry): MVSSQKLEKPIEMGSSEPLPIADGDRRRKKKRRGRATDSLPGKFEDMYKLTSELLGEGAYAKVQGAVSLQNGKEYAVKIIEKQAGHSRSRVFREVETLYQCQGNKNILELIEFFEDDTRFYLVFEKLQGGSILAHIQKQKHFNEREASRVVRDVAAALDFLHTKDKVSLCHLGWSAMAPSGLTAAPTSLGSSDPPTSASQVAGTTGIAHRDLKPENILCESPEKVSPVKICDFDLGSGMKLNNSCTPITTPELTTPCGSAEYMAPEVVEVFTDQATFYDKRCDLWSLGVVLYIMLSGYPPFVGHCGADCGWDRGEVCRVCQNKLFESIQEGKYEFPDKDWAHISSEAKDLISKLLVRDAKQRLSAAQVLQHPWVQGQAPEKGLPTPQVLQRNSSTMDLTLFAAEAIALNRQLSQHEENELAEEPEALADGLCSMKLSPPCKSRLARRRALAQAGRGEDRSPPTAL
Sequence of MNK2 (Q9HBH9 whole entry): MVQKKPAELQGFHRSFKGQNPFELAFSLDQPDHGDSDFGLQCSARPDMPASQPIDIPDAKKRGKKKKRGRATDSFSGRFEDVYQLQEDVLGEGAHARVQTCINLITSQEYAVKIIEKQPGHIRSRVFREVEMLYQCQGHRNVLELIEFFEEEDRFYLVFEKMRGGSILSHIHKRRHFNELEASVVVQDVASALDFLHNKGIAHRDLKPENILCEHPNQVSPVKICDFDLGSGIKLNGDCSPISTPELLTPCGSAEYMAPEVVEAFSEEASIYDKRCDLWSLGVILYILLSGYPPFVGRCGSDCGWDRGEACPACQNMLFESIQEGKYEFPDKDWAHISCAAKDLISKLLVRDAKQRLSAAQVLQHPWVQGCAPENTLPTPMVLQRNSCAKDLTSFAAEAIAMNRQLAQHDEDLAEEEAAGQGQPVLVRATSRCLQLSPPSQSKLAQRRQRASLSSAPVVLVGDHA

Structure (SMILES) | IC50 (MNK1) | IC50 (MNK2) | IC50 [1] | Efflux ratio (ratio B-A/A-B) (MDCK-MDR1) | Papp A-B (MDCK-MDR1) | Papp B-A (MDCK-MDR1) | T1/2 [2] | efflux ratio at 5 μM (P-gp (human MDR1, ABCB1); MDCK-MDR1, 5 μM, read-out: Efflux ratio (ratio B-A/A-B)) | half-life [2] | IC50 ([1]; Homo sapiens, HEK293, 2 h) | Papp A→B at 5 μM (P-gp (human MDR1, ABCB1); MDCK-MDR1, Apical to basolateral transport, 5 μM, average of two experiments) | Papp B→A at 5 μM (P-gp (human MDR1, ABCB1); MDCK-MDR1, Basolateral to apical transport, 5 μM, average of two experiments)
Cc1cc(Nc2cc(NC(=O)C3CC3)ncn2)c(=O)n2c1C(=O)NC21C[C@H]2CNC[C@H]2C1 (single isomer, unassigned) [Compound 4ET-03-050B, N-(6-((8′-Methyl-1′,5′-dioxo-1′,2,3,3a,4,5′,6,6a-octahydro-1H,2′H-spiro[cyclopenta[c]pyrrole-5,3′-imidazo[1,5-a]pyridin]-6′-yl)amino)pyrimidin-4-yl)cyclopropanecarboxamide] | 0.0409 µM | 0.00684 µM | 0.15 µM | 1.3 | 0.7 ×10⁻⁶ cm/s | 0.9 ×10⁻⁶ cm/s | 7.07 h | – | – | – | – | –
Cc1cc(Nc2cc(N)ncn2)c(=O)n2c1C(=O)NC21C[C@H]2COC[C@H]2C1 (single isomer, unassigned) [Compound 4ET-01-014A, 6′-((6-Aminopyrimidin-4-yl)amino)-8′-methyl-3a,4,6,6a-tetrahydro-1H,2′H,3H-spiro[cyclopenta[c]furan-5,3′-imidazo[1,5-a]pyridine]-1′,5′-dione] | 0.026 µM | 0.004 µM | 0.0284 µM | – | 24.9 ×10⁻⁶ cm/s | 46.4 ×10⁻⁶ cm/s | – | 1.9 | 4.5 h | – | – | –
Cc1cc(Nc2cc(NC(=O)C3CC3)ncn2)c(=O)n2c1C(=O)NC21C[C@H]2CNC[C@H]2C1 (single isomer, unassigned) [Compound 4ET-03-050A, N-(6-((8′-Methyl-1′,5′-dioxo-1′,2,3,3a,4,5′,6,6a-octahydro-1H,2′H-spiro[cyclopenta[c]pyrrole-5,3′-imidazo[1,5-a]pyridin]-6′-yl)amino)pyrimidin-4-yl)cyclopropanecarboxamide] | 0.035 µM | 0.00132 µM | 0.0026 µM | 12.4 | 2 ×10⁻⁶ cm/s | 24.5 ×10⁻⁶ cm/s | 1.2 h | – | – | – | – | –
Cc1cc(Nc2cc(N)ncn2)c(=O)n2c1C(=O)NC21C[C@H]2COC[C@H]2C1 (single isomer, unassigned) [Compound 4ET-01-014B, 6′-((6-Aminopyrimidin-4-yl)amino)-8′-methyl-3a,4,6,6a-tetrahydro-1H,2′H,3H-spiro[cyclopenta[c]furan-5,3′-imidazo[1,5-a]pyridine]-1′,5′-dione] | 0.0245 µM | 0.0046 µM | 0.0674 µM | 2.4 | 2.4 ×10⁻⁶ cm/s | 5.8 ×10⁻⁶ cm/s | 7.17 h | – | – | – | – | –
Cc1cc(Nc2cc(NC(=O)C3CC3)ncn2)c(=O)n2c1C(=O)NC21Cc2ccccc2[C@@H]1F (single isomer, unassigned) [Compound 4ET-03-052A, N-(6-((1′-Fluoro-8-methyl-1,5-dioxo-1,1′,3′,5-tetrahydro-2H-spiro[imidazo[1,5-a]pyridine-3,2′-inden]-6-yl)amino)pyrimidin-4-yl)cyclopropanecarboxamide] | 0.00471 µM | 0.0005 µM | – | 6.6 | – | – | – | – | 1.83 h | 0.0192 µM | 12.1 ×10⁻⁶ cm/s | 80.6 ×10⁻⁶ cm/s
